Measurements: ChEMBL document CHEMBL1201862, “PubChem BioAssay data set” (2004)
Activity calls are given as the source filed them.

Legend:
BJ [1] = assay: BJ-TERT fibroblast viability loss – cell-based, RAS-independent, luminescence, dose response (AID 1933); type: functional; details: Homo sapiens
[2] = DRD fibroblast viability loss – cell-based, non-viral oncogenic, luminescence, dose response (AID 1934); type: functional; details: Homo sapiens
BJ [3] = assay: BJ-TERT-LT-ST fibroblast viability loss – cell-based, RAS-independent, luminescence, dose response (AID 1935); type: functional; details: Homo sapiens;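 note: BJ fibroblasts immortalized with TERT plus LT and ST oncogenes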
BJ [4] = assay: growth inhibition of engineered Ras-driven BJ cells – cell-based, alamar blue fluorescence, cherrypicked samples, dose response (AID 2631); type: functional; details: Homo sapiens;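 note: confirmatory dose-response assay in RAS-dependent BJ fibroblasts engineered with TERT, LT and ST, with cytotoxicity read by fluorescence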
Vero [5] = assay: cells; type: functional, Chlorocebus sabaeus; details: Chlorocebus sabaeus, Vero
Vero [6] = assay: cells; type: functional, cell-based; details: Chlorocebus sabaeus
Cytochrome P450 2C19 = Cytochrome P450 2C19 (Homo sapiens, UniProt P33261); assay: Cytochrome panel assay with activity outcomes. Panel member name: p450-cyp2c19 Compounds with AC50 equal or less than 10 uM are considered active; type: functional
Cytochrome P450 2C19, sequence (P33261 whole entry): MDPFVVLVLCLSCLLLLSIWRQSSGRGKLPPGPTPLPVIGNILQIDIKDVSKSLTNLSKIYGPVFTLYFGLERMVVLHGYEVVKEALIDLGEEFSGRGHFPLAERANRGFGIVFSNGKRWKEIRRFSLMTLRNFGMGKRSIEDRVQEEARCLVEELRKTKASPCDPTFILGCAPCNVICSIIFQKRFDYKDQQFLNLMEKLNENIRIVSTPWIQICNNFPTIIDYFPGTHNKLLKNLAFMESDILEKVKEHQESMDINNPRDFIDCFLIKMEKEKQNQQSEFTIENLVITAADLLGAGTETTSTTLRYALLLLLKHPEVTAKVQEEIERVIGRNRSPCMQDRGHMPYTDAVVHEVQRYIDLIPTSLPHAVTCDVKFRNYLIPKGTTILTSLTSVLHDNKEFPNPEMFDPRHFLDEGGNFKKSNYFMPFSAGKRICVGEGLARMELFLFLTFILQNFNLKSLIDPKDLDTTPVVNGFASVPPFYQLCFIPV

Cytochrome P450 3A4 = Cytochrome P450 3A4 (Homo sapiens, UniProt P08684);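 note: CYP3A4 tested as one member of a cytochrome P450 panel screen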
Cytochrome P450 3A4, sequence (P08684 whole entry): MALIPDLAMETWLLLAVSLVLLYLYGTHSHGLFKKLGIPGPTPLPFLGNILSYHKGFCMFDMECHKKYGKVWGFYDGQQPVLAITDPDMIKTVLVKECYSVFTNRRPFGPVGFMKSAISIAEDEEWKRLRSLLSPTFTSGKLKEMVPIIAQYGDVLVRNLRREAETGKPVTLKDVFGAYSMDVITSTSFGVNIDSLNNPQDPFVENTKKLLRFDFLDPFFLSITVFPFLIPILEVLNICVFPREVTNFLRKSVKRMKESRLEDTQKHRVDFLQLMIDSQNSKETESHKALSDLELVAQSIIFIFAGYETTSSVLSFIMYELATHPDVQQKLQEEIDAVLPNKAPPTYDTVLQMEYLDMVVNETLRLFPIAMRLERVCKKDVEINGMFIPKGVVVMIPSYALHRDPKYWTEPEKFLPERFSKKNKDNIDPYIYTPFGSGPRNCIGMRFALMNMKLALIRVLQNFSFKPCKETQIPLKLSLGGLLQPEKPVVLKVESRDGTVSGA

BJ [7] = assay: cells; type: functional, cell-based; details: Homo sapiens
Nonstructural protein 1 = Nonstructural protein 1 (Influenza A virus, UniProt Q194T2); type: functional, Influenza A virus (A/California/07/2009(H1N1))
Nonstructural protein 1, sequence (Q194T2 whole entry): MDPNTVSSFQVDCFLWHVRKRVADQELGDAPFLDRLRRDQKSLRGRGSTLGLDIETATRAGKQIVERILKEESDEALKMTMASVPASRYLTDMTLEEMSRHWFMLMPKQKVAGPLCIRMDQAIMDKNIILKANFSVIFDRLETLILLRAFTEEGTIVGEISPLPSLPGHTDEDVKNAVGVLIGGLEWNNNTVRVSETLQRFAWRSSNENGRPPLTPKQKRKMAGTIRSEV

[8] = Luminescence Cell-Based Dose Retest to Confirm Inhibitors of Cancer Stem Cells. [Related pubchem assays (depositor defined):AID2717, AID2721]; type: functional; details: Homo sapiens
Cytochrome P450 2D6 = Cytochrome P450 2D6 (Homo sapiens, UniProt P10635);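 note: CYP2D6 member of a cytochrome P450 panel assay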
Cytochrome P450 2D6, sequence (P10635 whole entry): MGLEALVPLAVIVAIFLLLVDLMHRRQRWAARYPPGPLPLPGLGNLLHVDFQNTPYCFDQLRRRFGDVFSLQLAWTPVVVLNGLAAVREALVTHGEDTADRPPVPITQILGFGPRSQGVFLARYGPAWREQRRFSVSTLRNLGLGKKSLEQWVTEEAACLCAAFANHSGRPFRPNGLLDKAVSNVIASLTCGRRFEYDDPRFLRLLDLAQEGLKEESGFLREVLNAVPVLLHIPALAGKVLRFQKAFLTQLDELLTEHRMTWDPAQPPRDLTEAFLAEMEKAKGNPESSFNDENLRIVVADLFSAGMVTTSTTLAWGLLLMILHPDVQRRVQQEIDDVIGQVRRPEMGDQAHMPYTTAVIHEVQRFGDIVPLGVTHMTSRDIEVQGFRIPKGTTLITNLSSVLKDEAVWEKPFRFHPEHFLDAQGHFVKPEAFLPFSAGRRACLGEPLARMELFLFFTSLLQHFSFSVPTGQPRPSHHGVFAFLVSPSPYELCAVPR

Cytochrome P450 2C9 = Cytochrome P450 2C9 (Homo sapiens, UniProt P11712)
Cytochrome P450 2C9, sequence (P11712 whole entry): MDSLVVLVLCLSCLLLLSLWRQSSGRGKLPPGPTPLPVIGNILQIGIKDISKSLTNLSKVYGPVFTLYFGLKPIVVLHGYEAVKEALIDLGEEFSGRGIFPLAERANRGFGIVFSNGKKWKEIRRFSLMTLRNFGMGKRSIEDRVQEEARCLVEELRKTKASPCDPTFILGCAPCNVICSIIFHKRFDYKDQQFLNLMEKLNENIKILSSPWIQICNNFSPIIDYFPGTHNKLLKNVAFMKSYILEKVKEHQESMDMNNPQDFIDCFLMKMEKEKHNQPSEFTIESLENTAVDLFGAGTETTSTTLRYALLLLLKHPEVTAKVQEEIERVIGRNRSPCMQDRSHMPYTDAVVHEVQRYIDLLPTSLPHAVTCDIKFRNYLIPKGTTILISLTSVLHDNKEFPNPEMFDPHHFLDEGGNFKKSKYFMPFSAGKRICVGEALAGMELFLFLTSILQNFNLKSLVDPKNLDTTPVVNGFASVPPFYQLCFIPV

[9] = biological target: T1, Histone-lysine N-methyltransferase NSD2 (Homo sapiens, UniProt O96028); type: biochemical
T1 sequence (O96028 whole entry): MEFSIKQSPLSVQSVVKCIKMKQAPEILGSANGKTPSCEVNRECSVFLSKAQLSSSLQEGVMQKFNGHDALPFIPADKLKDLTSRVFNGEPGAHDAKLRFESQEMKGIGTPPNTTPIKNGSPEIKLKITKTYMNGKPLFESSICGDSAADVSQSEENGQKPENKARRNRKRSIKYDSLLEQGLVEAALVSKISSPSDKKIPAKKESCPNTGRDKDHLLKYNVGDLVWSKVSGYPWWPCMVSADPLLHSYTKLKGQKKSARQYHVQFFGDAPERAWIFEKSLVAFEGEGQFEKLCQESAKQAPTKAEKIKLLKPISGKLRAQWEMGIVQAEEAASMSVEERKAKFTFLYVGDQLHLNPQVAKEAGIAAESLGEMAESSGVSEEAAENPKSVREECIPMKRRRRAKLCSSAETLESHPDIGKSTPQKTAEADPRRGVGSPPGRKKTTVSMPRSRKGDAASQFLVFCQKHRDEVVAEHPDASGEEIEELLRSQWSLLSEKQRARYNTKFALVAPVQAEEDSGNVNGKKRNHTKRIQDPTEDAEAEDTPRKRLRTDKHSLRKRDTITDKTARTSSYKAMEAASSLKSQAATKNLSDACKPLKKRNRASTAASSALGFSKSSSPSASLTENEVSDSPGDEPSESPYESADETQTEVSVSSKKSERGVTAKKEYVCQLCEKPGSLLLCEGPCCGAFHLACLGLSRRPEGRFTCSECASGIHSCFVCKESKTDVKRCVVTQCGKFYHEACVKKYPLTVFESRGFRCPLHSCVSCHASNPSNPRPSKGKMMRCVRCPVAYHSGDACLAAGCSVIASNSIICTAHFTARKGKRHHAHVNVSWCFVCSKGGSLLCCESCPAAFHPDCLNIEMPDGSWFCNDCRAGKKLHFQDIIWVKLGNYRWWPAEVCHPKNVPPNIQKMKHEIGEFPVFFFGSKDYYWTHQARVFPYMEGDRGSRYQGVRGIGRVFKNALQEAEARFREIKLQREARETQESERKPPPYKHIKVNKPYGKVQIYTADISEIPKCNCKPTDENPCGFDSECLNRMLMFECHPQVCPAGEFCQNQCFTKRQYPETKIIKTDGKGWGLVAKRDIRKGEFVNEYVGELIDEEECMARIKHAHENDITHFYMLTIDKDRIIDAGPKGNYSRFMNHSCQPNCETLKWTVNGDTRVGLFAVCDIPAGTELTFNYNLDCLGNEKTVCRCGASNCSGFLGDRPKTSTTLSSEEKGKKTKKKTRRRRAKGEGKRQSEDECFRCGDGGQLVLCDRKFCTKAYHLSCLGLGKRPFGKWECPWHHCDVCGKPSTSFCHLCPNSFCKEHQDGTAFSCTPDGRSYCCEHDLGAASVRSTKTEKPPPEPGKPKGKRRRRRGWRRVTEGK

[10] = biological target: T2, Polyadenylate-binding protein 1 (Homo sapiens, UniProt P11940); assay: MLLE binding blockers, Cy5 peptide tracer – biochemical, fluorescence polarization, Cy5-PAM2 peptide, secondary, miRNA deadenylation inhibitor project, dose response (AID 602260); type: functional; details: read-out: IC50_Mean
T2 sequence (P11940 whole entry, the tested form may be a part): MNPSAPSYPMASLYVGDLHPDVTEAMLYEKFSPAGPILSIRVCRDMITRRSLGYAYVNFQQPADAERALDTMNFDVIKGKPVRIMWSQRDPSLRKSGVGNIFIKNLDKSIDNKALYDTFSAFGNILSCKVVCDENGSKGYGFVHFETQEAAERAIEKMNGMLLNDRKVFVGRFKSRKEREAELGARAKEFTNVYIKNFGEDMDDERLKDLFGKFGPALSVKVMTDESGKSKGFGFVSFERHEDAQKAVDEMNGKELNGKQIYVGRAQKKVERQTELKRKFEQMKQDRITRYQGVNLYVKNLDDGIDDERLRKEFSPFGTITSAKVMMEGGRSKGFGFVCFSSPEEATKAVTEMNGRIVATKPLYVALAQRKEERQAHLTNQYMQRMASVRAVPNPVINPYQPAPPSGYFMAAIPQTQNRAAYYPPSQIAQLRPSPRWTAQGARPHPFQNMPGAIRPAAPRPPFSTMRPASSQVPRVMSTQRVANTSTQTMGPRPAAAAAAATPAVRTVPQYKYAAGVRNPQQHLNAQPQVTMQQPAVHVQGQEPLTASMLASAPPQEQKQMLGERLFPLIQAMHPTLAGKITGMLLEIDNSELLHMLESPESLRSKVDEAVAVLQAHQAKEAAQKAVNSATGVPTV

[11] = biological target: T2, Polyadenylate-binding protein 1; assay: MLLE domain peptide-binding blockers, IC50 – biochemical, fluorescence polarization, FITC-PAM2 peptide, dose response (AID 602259); type: functional; details: read-out: IC50_Mean
Genome polyprotein = Genome polyprotein (dengue virus type 2, UniProt P29990); assay: flavivirus cap methylation enzyme inhibition – biochemical, confirmation dose response, primary screen (AID 588689); type: functional
Genome polyprotein, sequence (P29990 2492-3391 limits assumed): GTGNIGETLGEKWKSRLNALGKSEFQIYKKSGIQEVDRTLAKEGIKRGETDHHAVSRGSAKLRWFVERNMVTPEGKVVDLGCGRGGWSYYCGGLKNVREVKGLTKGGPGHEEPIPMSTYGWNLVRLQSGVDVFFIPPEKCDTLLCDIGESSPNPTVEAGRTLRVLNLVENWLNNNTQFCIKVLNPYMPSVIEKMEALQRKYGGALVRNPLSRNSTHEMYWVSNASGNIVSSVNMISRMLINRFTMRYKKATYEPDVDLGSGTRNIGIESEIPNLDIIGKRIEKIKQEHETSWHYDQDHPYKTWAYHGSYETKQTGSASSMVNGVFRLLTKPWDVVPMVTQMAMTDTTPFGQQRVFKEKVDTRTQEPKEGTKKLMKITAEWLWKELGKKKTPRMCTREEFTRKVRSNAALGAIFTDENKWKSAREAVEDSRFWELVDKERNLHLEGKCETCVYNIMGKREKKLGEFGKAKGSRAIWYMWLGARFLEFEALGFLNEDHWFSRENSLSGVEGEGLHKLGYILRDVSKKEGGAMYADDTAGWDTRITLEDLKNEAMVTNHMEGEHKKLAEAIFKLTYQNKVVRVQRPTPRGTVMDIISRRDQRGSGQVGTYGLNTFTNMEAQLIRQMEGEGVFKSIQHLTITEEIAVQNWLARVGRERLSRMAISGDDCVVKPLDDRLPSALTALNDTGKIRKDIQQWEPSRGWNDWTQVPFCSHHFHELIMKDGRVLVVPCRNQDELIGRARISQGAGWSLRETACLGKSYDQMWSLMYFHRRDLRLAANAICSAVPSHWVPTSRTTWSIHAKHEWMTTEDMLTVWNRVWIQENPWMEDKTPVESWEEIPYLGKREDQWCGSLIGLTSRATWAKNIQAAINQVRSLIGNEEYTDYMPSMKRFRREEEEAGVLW

[12] = biological target: T3, Replicative DNA helicase DnaB (Mycobacterium tuberculosis, UniProt P9WMR3); assay: DnaB intein splicing inhibitors, dose response, biochemical, cell-free fluorescence (AID 449749); type: functional
T3 sequence (P9WMR3 whole entry): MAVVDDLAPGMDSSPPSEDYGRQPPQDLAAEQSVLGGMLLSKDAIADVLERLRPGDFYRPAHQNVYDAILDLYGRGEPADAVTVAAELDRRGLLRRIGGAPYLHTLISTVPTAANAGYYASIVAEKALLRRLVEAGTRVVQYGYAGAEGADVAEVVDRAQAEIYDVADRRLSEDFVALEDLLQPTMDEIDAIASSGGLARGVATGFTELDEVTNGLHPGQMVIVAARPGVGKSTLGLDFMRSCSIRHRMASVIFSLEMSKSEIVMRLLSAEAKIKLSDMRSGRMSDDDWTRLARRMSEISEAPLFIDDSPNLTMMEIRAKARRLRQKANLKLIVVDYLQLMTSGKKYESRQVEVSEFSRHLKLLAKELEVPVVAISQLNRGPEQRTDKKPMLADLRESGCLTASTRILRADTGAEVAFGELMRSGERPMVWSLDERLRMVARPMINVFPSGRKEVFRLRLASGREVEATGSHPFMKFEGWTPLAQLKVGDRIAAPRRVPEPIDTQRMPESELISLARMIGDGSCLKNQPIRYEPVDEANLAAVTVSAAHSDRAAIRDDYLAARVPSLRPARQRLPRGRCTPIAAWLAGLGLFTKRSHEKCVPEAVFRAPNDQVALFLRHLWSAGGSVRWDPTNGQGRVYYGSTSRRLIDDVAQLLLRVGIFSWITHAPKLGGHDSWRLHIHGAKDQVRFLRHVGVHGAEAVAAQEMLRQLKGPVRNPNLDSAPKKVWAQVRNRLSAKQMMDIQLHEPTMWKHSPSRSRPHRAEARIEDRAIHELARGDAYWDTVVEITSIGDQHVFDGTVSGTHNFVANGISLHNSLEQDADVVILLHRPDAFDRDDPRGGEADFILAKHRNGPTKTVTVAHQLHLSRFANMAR

[13] = biological target: Induced myeloid leukemia cell differentiation protein Mcl-1 (Homo sapiens, UniProt Q07820); type: functional
Induced myeloid leukemia cell differentiation protein Mcl-1, sequence (Q07820 whole entry): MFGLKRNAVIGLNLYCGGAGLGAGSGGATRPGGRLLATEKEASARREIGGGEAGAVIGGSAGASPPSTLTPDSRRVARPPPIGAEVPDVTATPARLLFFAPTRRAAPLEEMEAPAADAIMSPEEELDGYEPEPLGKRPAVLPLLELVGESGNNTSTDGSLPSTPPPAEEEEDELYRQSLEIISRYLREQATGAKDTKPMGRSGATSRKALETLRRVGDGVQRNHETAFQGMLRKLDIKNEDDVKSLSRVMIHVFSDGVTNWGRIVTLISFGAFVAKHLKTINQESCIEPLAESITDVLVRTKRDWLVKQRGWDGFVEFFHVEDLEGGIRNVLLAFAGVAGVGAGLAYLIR

Protein RecA = biological target: T4, Protein RecA (Mycobacterium tuberculosis, UniProt P9WHJ3); assay: Fluorescence Cell-Free Homogeneous Dose Retest to Identify Inhibitors of RecA-Intein Splicing Activity. [Related pubchem assays (depositor defined):AID2097, AID2223, AID489010, AID492950]; type: functional
T4 sequence (P9WHJ3 whole entry): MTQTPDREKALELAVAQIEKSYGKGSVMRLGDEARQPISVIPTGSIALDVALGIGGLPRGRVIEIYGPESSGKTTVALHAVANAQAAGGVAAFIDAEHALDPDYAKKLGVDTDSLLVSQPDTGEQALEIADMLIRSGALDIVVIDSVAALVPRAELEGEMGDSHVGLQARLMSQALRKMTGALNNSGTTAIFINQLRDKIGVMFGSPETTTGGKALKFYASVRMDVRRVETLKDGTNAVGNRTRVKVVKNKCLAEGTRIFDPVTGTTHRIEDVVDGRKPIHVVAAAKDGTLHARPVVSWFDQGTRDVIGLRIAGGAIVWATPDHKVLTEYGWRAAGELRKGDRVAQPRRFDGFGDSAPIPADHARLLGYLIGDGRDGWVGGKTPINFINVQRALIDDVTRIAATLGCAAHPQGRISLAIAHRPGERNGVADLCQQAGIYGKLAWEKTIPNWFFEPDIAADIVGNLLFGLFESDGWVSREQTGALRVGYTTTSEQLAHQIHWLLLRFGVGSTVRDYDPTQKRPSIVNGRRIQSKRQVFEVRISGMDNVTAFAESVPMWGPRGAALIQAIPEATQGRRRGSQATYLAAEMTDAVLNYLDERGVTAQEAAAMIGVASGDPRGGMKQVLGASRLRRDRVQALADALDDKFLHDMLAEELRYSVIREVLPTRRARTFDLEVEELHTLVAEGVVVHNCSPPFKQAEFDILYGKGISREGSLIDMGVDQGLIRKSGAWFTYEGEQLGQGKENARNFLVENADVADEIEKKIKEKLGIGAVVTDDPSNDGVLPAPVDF

[14] = Luminescence Cell-Based Dose Response HTS to Identify Inhibitors of 5'UTR Stem-Loop Driven Prion Protein mRNA Translation in H4 Neuroglioblastoma Cells. [Related pubchem assays: 1827 (Project Summary), 1813 (Primary HTS)]; type: functional
Streptococcus = assay: GAS UMAA2166 growth inhibition – luminescence, BacTiterGlo, counter-screen for streptokinase expression inhibitor project, dose response (AID 1915); type: functional, organism-based;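 note: potency for reduction of bacterial viability or growth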
[15] = luciferase reporter signal suppression in cells – H4 neuroglioma cells, luminescence, dose response (AID 1990); type: functional, cell-based
[16] = alpha-synuclein stem-loop luciferase translation blockers – H4 neuroglioma cells, luminescence, confirmation (AID 1988); type: functional, cell-based
[17] = tested on: Streptococcus sp. 'group A'; assay: Streptococcus pyogenes SK(-)GAS viability under kanamycin – luminescence, BacTiterGlo, confirmation, counter-screen for streptokinase expression inhibitor project, dose response (AID 1900); type: functional, organism-based

## COc1cc([C@@H]2c3cc4c(cc3[C@@H](NC3CCN(Cc5ccccc5)CC3)[C@H]3COC(=O)[C@H]23)OCO4)cc(OC)c1O
BJ [1]
  EC50: 1.33 µM (active)
[2]
  EC50: 2.38 µM (active)
BJ [3]
  EC50: 0.297 µM (active)
BJ [4]
  EC50: 0.554 µM (active)

## O=C(Cc1coc2ccc3ccccc3c12)Nc1nnc(C2CC2)s1
Vero [5]
  CC50: > 25 µM (active)
Vero [6]
  IC50: 21.7 µM (active)

## Cc1cccnc1NC(=O)C12CCC(C)(C(=O)O1)C2(C)C (centres undefined)
Cytochrome P450 2C19
  AC50: inconclusive
Cytochrome P450 3A4
  AC50: inconclusive

## O=C(O)/C=C/C(=O)Nc1ccc(F)cc1F
Cytochrome P450 2C19; read-out: AC50
  AC50: 39.8 µM (inconclusive)
Cytochrome P450 3A4
  AC50: inconclusive

## COC1CC(C)C(OC)c2cc(O)cc(c2O)NC(=O)C(C)=CC=CC(C)C(OC(N)=O)C(C)=CC(C)C1OC (centres undefined)
Vero [5]
  CC50: 12.6 µM (active)

## CCN(CC)CCCNC(=O)c1cc(-c2ccccc2)c(N2CCCCC2)s1
BJ [1]
  EC50: 9.67 µM (active)
[2]
  EC50: 10.1 µM (active)
BJ [7]
  EC50: 28.8 µM (active)
BJ [3]
  EC50: 12.8 µM (inconclusive)
Nonstructural protein 1
  IC50: 88.3 µM (active)
[8]
  AC50: 3.79 µM (active)
BJ [4]
  EC50: > 133 µM (inactive)

## O=C(c1csnn1)N1CCC2(CC1)CN(C(c1ccccc1)c1ccccc1)C2
Cytochrome P450 2C19; read-out: AC50
  AC50: 0.00631 µM (inconclusive)
Cytochrome P450 3A4
  AC50: inconclusive
Cytochrome P450 2D6
  AC50: 12.6 µM (inconclusive)
Cytochrome P450 2C9
  AC50: 15.8 µM (inconclusive)

## Cc1cc(C=O)c(C)n1-c1ccc(N2CCCCC2)c([N+](=O)[O-])c1
[9]
  AC50: > 20 µM (inactive)

## CC(=O)c1cc(O)c2ccccc2c1O
[10]
  IC50: > 66 µM (inactive)
[11]
  IC50: > 66 µM (inactive)
Genome polyprotein
  IC50: 29.7 µM (active)
[12]
  AC50: > 380 µM (inactive)
[13]
  IC50: 5.99 µM (active)
[9]
  AC50: 10.6 µM (active)
Protein RecA
  EC50: 2.82 µM (active)

## O=C(CC1C(=O)NCCN1C(=O)Nc1ccc(C(F)(F)F)cc1)Nc1ccc(F)cc1 (centres undefined)
Vero [5]
  CC50: > 25 µM (active)

## COc1ccc(C(=O)N2CCC3(CC2)CCN(C(c2ccccc2)c2ccccc2)CC3)cc1
Cytochrome P450 3A4
  AC50: inconclusive
Cytochrome P450 2D6
  AC50: 12.6 µM (inconclusive)
Cytochrome P450 2C9
  AC50: 39.8 µM (inconclusive)

## CC1(C)N=C(N)N=C(N)N1c1ccccc1
[14]
  EC50: 15.6 µM (active)
Streptococcus
  EC50: 1.3 µM (active)
BJ [1]
  EC50: > 150 µM (not active)
[2]
  EC50: 14.9 µM (active)
[15]
  EC50: 6.38 µM (active)
BJ [7]
  EC50: 8.15 µM (active)
BJ [3]
  EC50: > 150 µM (not active)
[16]
  EC50: 1.62 µM (active)
BJ [4]
  EC50: > 133 µM (inactive)
[17]
  EC50: 0.357 µM (active)
